For three compounds, IC50 and Ratio IC50 results are on record in ChEMBL document CHEMBL4145695, “Histone Deacetylase 6-Selective Inhibitors and the Influence of Capping Groups on Hydroxamate-Zinc Denticity” (J Med Chem, 2018).

The target in one experiment is Histone deacetylase 1 (Homo sapiens, UniProt Q13547). Description: Inhibition of human recombinant HDAC1 incubated for 90 mins using fluorogenic substrate ZMAL (Z-Lys(Ac)-AMC) by fluorescence based assay.
Experiment [1] concerns the target T1, Protein deacetylase HDAC6 (Homo sapiens, UniProt Q9UBN7).
T1 sequence (Q9UBN7 whole entry): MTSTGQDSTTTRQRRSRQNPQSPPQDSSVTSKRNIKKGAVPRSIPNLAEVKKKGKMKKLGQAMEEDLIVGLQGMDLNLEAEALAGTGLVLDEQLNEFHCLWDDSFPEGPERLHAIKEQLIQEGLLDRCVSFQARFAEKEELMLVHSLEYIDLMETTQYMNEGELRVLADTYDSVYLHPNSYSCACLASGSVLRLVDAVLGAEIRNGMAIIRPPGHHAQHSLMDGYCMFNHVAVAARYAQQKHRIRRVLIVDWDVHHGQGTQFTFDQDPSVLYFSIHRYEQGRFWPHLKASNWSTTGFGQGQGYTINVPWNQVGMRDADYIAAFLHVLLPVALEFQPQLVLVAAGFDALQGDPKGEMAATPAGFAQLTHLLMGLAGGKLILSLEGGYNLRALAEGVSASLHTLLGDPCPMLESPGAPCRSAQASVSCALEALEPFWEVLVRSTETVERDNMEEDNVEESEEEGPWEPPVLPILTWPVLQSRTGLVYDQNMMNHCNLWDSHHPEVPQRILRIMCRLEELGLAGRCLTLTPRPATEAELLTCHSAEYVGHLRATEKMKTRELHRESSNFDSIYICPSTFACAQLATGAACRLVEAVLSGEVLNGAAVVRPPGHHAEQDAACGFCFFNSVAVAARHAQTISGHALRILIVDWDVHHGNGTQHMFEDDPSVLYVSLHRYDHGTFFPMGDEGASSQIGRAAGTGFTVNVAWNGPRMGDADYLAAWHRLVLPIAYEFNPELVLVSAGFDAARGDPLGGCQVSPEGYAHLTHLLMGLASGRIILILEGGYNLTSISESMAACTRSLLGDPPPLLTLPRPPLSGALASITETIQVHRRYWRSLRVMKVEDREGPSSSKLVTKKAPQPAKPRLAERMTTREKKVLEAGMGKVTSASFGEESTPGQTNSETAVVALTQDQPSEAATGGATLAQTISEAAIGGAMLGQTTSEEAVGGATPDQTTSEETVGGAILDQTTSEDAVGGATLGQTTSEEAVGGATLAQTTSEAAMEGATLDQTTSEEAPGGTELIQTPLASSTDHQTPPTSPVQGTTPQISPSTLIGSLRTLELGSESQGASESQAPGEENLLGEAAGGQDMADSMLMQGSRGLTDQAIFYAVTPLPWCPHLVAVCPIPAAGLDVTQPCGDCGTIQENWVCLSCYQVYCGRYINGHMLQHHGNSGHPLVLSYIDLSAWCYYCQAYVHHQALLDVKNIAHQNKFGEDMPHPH
Kind of experiment: Inhibition of human recombinant HDAC6 incubated for 90 mins using fluorogenic substrate ZMAL (Z-Lys(Ac)-AMC) by fluorescence based assay.

The species entered for a further experiment is Homo sapiens. Description: Selectivity index, ratio of IC50 for inhibition of human recombinant HDAC1 to IC50 for inhibition of human recombinant HDAC6.

SMILES strings stand for the structures. A value given as a limit tells only on which side of the number the result lay.

Histone deacetylase 1, sequence (Q13547 whole entry): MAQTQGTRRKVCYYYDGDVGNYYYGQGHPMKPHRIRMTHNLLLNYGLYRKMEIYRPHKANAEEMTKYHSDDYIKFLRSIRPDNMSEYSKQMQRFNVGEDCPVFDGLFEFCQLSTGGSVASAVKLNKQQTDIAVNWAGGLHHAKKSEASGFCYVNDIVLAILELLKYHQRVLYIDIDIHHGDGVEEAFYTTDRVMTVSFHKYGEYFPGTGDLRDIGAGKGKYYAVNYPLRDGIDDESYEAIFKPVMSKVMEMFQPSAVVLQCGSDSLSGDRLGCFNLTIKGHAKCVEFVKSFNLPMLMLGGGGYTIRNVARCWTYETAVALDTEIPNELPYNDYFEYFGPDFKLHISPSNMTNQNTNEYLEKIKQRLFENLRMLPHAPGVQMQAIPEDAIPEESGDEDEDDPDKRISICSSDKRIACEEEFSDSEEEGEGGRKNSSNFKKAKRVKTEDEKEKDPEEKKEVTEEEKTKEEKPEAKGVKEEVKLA

Regarding `CN(C)c1ccc(C(=O)N(CC(=O)NCc2ccccc2)Cc2ccc(C(=O)NO)cc2)cc1`, the values for the IC50 (on Histone deacetylase 1; in experiment [1]) were 0.008 µM and 0.014 µM, respectively. Besides, the Ratio IC50 in the experiment filed under Homo sapiens stood at 0.6.

Turning to `Cc1cc(C)cc(C(=O)N(CC(=O)NC2CCCCC2)Cc2ccc(C(=O)NO)cc2)c1`, the IC50 stood at 0.27 µM on Histone deacetylase 1 and 0.011 µM in experiment [1]. The Ratio IC50 in the experiment listed under Homo sapiens is 25.

`CN(Cc1ccc(C(=O)NO)cc1F)CC12CC3CC(CC(C3)C1)C2`: the IC50 on Histone deacetylase 1 was over 1000 µM.

Usually IC50 stands for the midpoint of a concentration-inhibition curve.
